Results on one compound are retold here after PubChem BioAssay AID1794826.

What is called EC50 is the concentration giving half of the maximal effect.

This experiment deals with Sodium/myo-inositol cotransporter 2 (Homo sapiens) (UniProt Q8WWX8). Put plainly: SLC5A11 myo-inositol cotransport substrate activity, dose response, cell-based, membrane potential dye, HEK-293, SLC5A11 overexpression (AID 1794826). The following applies: HEK-293 SLC5A11 OE, FLIPR membrane potential dye.
Sodium/myo-inositol cotransporter 2 (Homo sapiens), sequence (Q8WWX8 whole entry, looked up): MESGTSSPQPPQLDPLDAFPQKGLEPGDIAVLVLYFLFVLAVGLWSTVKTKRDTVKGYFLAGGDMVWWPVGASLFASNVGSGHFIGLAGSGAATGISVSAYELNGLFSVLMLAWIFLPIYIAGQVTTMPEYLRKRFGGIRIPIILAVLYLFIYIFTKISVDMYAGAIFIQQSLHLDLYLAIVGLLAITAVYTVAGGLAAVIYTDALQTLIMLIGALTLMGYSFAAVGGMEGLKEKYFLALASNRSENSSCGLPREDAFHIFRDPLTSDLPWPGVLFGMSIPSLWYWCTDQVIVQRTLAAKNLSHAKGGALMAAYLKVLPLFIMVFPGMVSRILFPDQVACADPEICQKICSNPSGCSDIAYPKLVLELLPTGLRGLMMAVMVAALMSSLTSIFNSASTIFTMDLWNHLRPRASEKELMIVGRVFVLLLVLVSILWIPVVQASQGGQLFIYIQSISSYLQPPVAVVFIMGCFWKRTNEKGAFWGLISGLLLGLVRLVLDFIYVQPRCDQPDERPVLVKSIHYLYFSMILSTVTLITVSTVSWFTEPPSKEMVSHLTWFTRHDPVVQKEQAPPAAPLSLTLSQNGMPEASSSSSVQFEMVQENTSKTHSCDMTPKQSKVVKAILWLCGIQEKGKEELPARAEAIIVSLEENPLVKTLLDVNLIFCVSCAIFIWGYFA

As for `OC1C(O)C(O)C(O)C(O)C1O` (stereo unspecified), the 50% effective concentration (EC50) was 104 µM.
